{"source": "PubChem BioAssay AID1259407", "about": "(Chemical Carcinogenesis Research Information System (CCRIS), 2018)", "test_system": "CCRIS mutagenicity, Ames/micronucleus/aberration tests", "assay": "CCRIS mutagenicity studies", "key": {"[1]": {"conditions": "Test System: AMES SALMONELLA TYPHIMURIUM, Strain/Indicator: TA98, Metabolic Activation: NONE, Method: PREINCUBATION"}, "[2]": {"conditions": "Test System: AMES SALMONELLA TYPHIMURIUM, Strain/Indicator: TA100, Metabolic Activation: NONE, Method: PREINCUBATION"}, "[3]": {"conditions": "Test System: AMES SALMONELLA TYPHIMURIUM, Strain/Indicator: TA1535, Metabolic Activation: NONE, Method: PREINCUBATION"}, "[4]": {"conditions": "Test System: AMES SALMONELLA TYPHIMURIUM, Strain/Indicator: TA1537, Metabolic Activation: NONE, Method: PREINCUBATION"}, "[5]": {"conditions": "Test System: AMES SALMONELLA TYPHIMURIUM, Strain/Indicator: TA100, Metabolic Activation: NONE, Method: STANDARD PLATE"}}, "note": "The source made the active and inactive calls. How the calls were made is not given here.", "data": [{"smiles": "[Cl][Sn]([c]1ccccc1)([c]1ccccc1)[c]1ccccc1", "values": [{"measurement": "mutagenic call", "setting": "Test System: AMES SALMONELLA TYPHIMURIUM, Strain/Indicator: TA98, Metabolic Activation: NONE, Method: SUSPENSION/PLATE", "result": "inactive; negative"}, {"measurement": "mutagenic call", "setting": "Test System: AMES SALMONELLA TYPHIMURIUM, Strain/Indicator: TA100, Metabolic Activation: NONE, Method: SUSPENSION/PLATE", "result": "inactive; negative"}]}, {"smiles": "O=C(O)/C=C/C(=O)O", "values": [{"measurement": "mutagenic call", "setting": "Test System: AMES SALMONELLA TYPHIMURIUM, Strain/Indicator: TA97, Metabolic Activation: HAMSTER, LIVER, S-9, AROCLOR 1254 (10 OR 30%), Method: PREINCUBATION", "result": "inactive; negative"}, {"measurement": "mutagenic call", "setting": "Test System: AMES SALMONELLA TYPHIMURIUM, Strain/Indicator: TA97, Metabolic Activation: NONE, Method: PREINCUBATION", "result": "inactive; negative"}, {"measurement": "mutagenic call", "setting": "Test System: AMES SALMONELLA TYPHIMURIUM, Strain/Indicator: TA97, Metabolic Activation: RAT, LIVER, S-9, AROCLOR 1254 (10 OR 30%), Method: PREINCUBATION", "result": "inactive; negative"}, {"measurement": "mutagenic call", "setting": "Test System: AMES SALMONELLA TYPHIMURIUM, Strain/Indicator: TA97, Metabolic Activation: RAT, LIVER, S-9, AROCLOR 1254, Method: PREINCUBATION", "result": "inactive; negative"}, {"measurement": "mutagenic call", "setting": "Test System: AMES SALMONELLA TYPHIMURIUM, Strain/Indicator: TA98, Metabolic Activation: HAMSTER, LIVER, S-9, AROCLOR 1254 (10 OR 30%), Method: PREINCUBATION", "result": "inactive; negative"}, {"measurement": "mutagenic call", "setting": "[1]", "result": "inactive; negative"}, {"measurement": "mutagenic call", "setting": "Test System: AMES SALMONELLA TYPHIMURIUM, Strain/Indicator: TA98, Metabolic Activation: RAT, LIVER, S-9, AROCLOR 1254 (10 OR 30%), Method: PREINCUBATION", "result": "inactive; negative"}, {"measurement": "mutagenic call", "setting": "Test System: AMES SALMONELLA TYPHIMURIUM, Strain/Indicator: TA100, Metabolic Activation: HAMSTER, LIVER, S-9, AROCLOR 1254 (10 OR 30%), Method: PREINCUBATION", "result": "inactive; negative"}, {"measurement": "mutagenic call", "setting": "[2]", "result": "inactive; negative"}, {"measurement": "mutagenic call", "setting": "Test System: AMES SALMONELLA TYPHIMURIUM, Strain/Indicator: TA100, Metabolic Activation: RAT, LIVER, S-9, AROCLOR 1254 (10 OR 30%), Method: PREINCUBATION", "result": "inactive; negative"}, {"measurement": "mutagenic call", "setting": "Test System: AMES SALMONELLA TYPHIMURIUM, Strain/Indicator: TA102, Metabolic Activation: NONE, Method: PREINCUBATION", "result": "inactive; negative"}, {"measurement": "mutagenic call", "setting": "Test System: AMES SALMONELLA TYPHIMURIUM, Strain/Indicator: TA102, Metabolic Activation: RAT, LIVER, S-9, AROCLOR 1254, Method: PREINCUBATION", "result": "inactive; negative"}, {"measurement": "mutagenic call", "setting": "Test System: AMES SALMONELLA TYPHIMURIUM, Strain/Indicator: TA1535, Metabolic Activation: HAMSTER, LIVER, S-9, AROCLOR 1254 (10 OR 30%), Method: PREINCUBATION", "result": "inactive; negative"}, {"measurement": "mutagenic call", "setting": "[3]", "result": "inactive; negative"}, {"measurement": "mutagenic call", "setting": "Test System: AMES SALMONELLA TYPHIMURIUM, Strain/Indicator: TA1535, Metabolic Activation: RAT, LIVER, S-9, AROCLOR 1254 (10 OR 30%), Method: PREINCUBATION", "result": "inactive; negative"}, {"measurement": "mutagenic call", "setting": "Test System: MOUSE LYMPHOMA, Strain/Indicator: L5178Y (TK+/TK-), Metabolic Activation: NONE, Method: SUSPENSION/PLATE", "result": "active; positive. reevaluation of results: positive"}, {"measurement": "mutagenic call", "setting": "Test System: MOUSE LYMPHOMA, Strain/Indicator: L5178Y (TK+/TK-), Metabolic Activation: RAT, LIVER, S-9, AROCLOR 1254, Method: SUSPENSION/PLATE", "result": "active; positive. reevaluation of results: positive"}]}, {"smiles": "Nc1cc(S(=O)(=O)O)cc2cc(S(=O)(=O)O)cc(O)c12", "values": [{"measurement": "mutagenic call", "setting": "[1]", "result": "inactive; negative"}, {"measurement": "mutagenic call", "setting": "Test System: AMES SALMONELLA TYPHIMURIUM, Strain/Indicator: TA98, Metabolic Activation: RAT LIVER S-9, PHENOBARBITAL AND BETA-NAPHTHOFLAVONE, Method: PREINCUBATION", "result": "inactive; negative"}, {"measurement": "mutagenic call", "setting": "[2]", "result": "inactive; negative"}, {"measurement": "mutagenic call", "setting": "Test System: AMES SALMONELLA TYPHIMURIUM, Strain/Indicator: TA100, Metabolic Activation: RAT LIVER S-9, PHENOBARBITAL AND BETA-NAPHTHOFLAVONE, Method: PREINCUBATION", "result": "inactive; negative"}, {"measurement": "mutagenic call", "setting": "[3]", "result": "inactive; negative"}, {"measurement": "mutagenic call", "setting": "Test System: AMES SALMONELLA TYPHIMURIUM, Strain/Indicator: TA1535, Metabolic Activation: RAT LIVER S-9, PHENOBARBITAL AND BETA-NAPHTHOFLAVONE, Method: PREINCUBATION", "result": "inactive; negative"}, {"measurement": "mutagenic call", "setting": "[4]", "result": "inactive; negative"}, {"measurement": "mutagenic call", "setting": "Test System: AMES SALMONELLA TYPHIMURIUM, Strain/Indicator: TA1537, Metabolic Activation: RAT LIVER S-9, PHENOBARBITAL AND BETA-NAPHTHOFLAVONE, Method: PREINCUBATION", "result": "inactive; negative"}, {"measurement": "mutagenic call", "setting": "Test System: AMES SALMONELLA TYPHIMURIUM, Strain/Indicator: TA1538, Metabolic Activation: NONE, Method: PREINCUBATION", "result": "inactive; negative"}, {"measurement": "mutagenic call", "setting": "Test System: AMES SALMONELLA TYPHIMURIUM, Strain/Indicator: TA1538, Metabolic Activation: RAT LIVER S-9, PHENOBARBITAL AND BETA-NAPHTHOFLAVONE, Method: PREINCUBATION", "result": "inactive; negative"}, {"measurement": "mutagenic call", "setting": "Test System: E.COLI, Strain/Indicator: WP2UVRA, Metabolic Activation: NONE, Method: PREINCUBATION", "result": "inactive; negative"}, {"measurement": "mutagenic call", "setting": "Test System: E.COLI, Strain/Indicator: WP2UVRA, Metabolic Activation: RAT LIVER S-9, PHENOBARBITAL AND BETA-NAPHTHOFLAVONE, Method: PREINCUBATION", "result": "inactive; negative"}]}, {"smiles": "CC(C)CCC[C@@H](C)[C@H]1CC[C@H]2[C@@H]3[C@H](OO)C=C4C[C@@H](O)CC[C@]4(C)[C@H]3CC[C@]12C", "values": [{"measurement": "mutagenic call", "setting": "[4]", "result": "active; positive"}]}, {"smiles": "Cc1cn(CC(O)CN=[N+]=[N-])c(=O)[nH]c1=O", "note": "(stereo unspecified)", "values": [{"measurement": "mutagenic call", "setting": "[5]", "result": "active; positive"}]}, {"smiles": "Cc1ccc(C(C)(C)C)cc1", "values": [{"measurement": "mutagenic call", "setting": "Test System: AMES SALMONELLA TYPHIMURIUM, Strain/Indicator: TA98, Metabolic Activation: HAMSTER, LIVER, S-9, AROCLOR 1254 (10%), Method: PREINCUBATION", "result": "inactive; negative"}, {"measurement": "mutagenic call", "setting": "[1]", "result": "inactive; negative"}, {"measurement": "mutagenic call", "setting": "Test System: AMES SALMONELLA TYPHIMURIUM, Strain/Indicator: TA98, Metabolic Activation: RAT, LIVER, S-9, AROCLOR 1254 (10%), Method: PREINCUBATION", "result": "inactive; negative"}, {"measurement": "mutagenic call", "setting": "Test System: AMES SALMONELLA TYPHIMURIUM, Strain/Indicator: TA100, Metabolic Activation: HAMSTER, LIVER, S-9, AROCLOR 1254 (10%), Method: PREINCUBATION", "result": "inactive; negative"}, {"measurement": "mutagenic call", "setting": "[2]", "result": "inactive; negative"}, {"measurement": "mutagenic call", "setting": "Test System: AMES SALMONELLA TYPHIMURIUM, Strain/Indicator: TA100, Metabolic Activation: RAT, LIVER, S-9, AROCLOR 1254 (10%), Method: PREINCUBATION", "result": "inactive; negative"}, {"measurement": "mutagenic call", "setting": "Test System: AMES SALMONELLA TYPHIMURIUM, Strain/Indicator: TA1535, Metabolic Activation: HAMSTER, LIVER, S-9, AROCLOR 1254 (10%), Method: PREINCUBATION", "result": "inactive; negative"}, {"measurement": "mutagenic call", "setting": "[3]", "result": "inactive; negative"}, {"measurement": "mutagenic call", "setting": "Test System: AMES SALMONELLA TYPHIMURIUM, Strain/Indicator: TA1535, Metabolic Activation: RAT, LIVER, S-9, AROCLOR 1254 (10%), Method: PREINCUBATION", "result": "inactive; negative"}, {"measurement": "mutagenic call", "setting": "Test System: AMES SALMONELLA TYPHIMURIUM, Strain/Indicator: TA1537, Metabolic Activation: HAMSTER, LIVER, S-9, AROCLOR 1254 (10%), Method: PREINCUBATION", "result": "inactive; negative"}, {"measurement": "mutagenic call", "setting": "[4]", "result": "inactive; negative"}, {"measurement": "mutagenic call", "setting": "Test System: AMES SALMONELLA TYPHIMURIUM, Strain/Indicator: TA1537, Metabolic Activation: RAT, LIVER, S-9, AROCLOR 1254 (10%), Method: PREINCUBATION", "result": "inactive; negative"}]}, {"smiles": "Oc1cccc2ncccc12", "values": [{"measurement": "mutagenic call", "setting": "[1]", "result": "inactive; negative"}, {"measurement": "mutagenic call", "setting": "Test System: AMES SALMONELLA TYPHIMURIUM, Strain/Indicator: TA98, Metabolic Activation: RAT, LIVER, S-9, Method: PREINCUBATION", "result": "active; positive"}, {"measurement": "mutagenic call", "setting": "[2]", "result": "inactive; negative"}, {"measurement": "mutagenic call", "setting": "[5]", "result": "inactive; negative"}, {"measurement": "mutagenic call", "setting": "Test System: AMES SALMONELLA TYPHIMURIUM, Strain/Indicator: TA100, Metabolic Activation: RAT, LIVER, S-9, AROCLOR 1254 (10% OR 20%), Method: STANDARD PLATE", "result": "active; positive"}, {"measurement": "mutagenic call", "setting": "Test System: AMES SALMONELLA TYPHIMURIUM, Strain/Indicator: TA100, Metabolic Activation: RAT, LIVER, S-9, Method: PREINCUBATION", "result": "active; positive"}]}]}
